Assay: Human HepG2 cell viability assay in 384 well format
Type: toxicity, cell-based
Set-up: dose 125 nL, time 70.5 hour; concentration not given beside the values
Settings: HepG2 cells, read-out: Inhibition

| SMILES | cytotoxicity at 70.5 h [%] |
| --- | --- |
| Cc1cnn(CC2CCCN2C(=O)c2cccc(F)c2F)c1 (configuration not stated) | -1.26 |
| COCCc1noc(CN2CCCC2Cn2nc(C)cc2C)n1 (configuration not stated) | 1.57 |
| COc1cccc(S(=O)(=O)CCNC2CCc3ncnn3C2)c1 (configuration not stated) | -4.52 |
| O=C(COc1ccc(Cl)cc1)N1CCN(c2cnccn2)CC1 | -0.713 |
| Cc1noc(C)c1C(=O)NCC(C)N1CCc2ccccc21 (configuration not stated) | 9.63 |
| CS(=O)(=O)N1CCC(NC(=O)COc2ccccc2Cl)CC1 | -3.89 |
| Cc1ccc(OCC(=O)NC2CCN(S(C)(=O)=O)CC2)cc1 | -1.26 |
| COc1ncccc1NC(=O)NC1CCCN(c2ncccn2)C1 (configuration not stated) | 1.22 |
| COCCCNC(=O)Nc1ccc(F)c(C(N)=O)c1 | 0.915 |
| CCCc1nc(C)c(C(=O)NCCN2CCOCC2)s1 | 21.3 |
| COC(=O)c1cccn1C1CCN(Cc2cccc(C(N)=O)c2)CC1 | -0.0643 |
| CCOc1ncccc1NC(=O)NC1CCN(C(C)=O)CC1 | 1.62 |
| COc1ccc(OCC(=O)NS(=O)(=O)c2ccc(Br)s2)cc1 | 18.9 |
| COc1cc(C)ccc1OCC(=O)NS(=O)(=O)c1ccc(Br)s1 | -4.31 |
| Cc1cnn(CC2CCCCN2c2nn3cc(C)nc3s2)c1 (configuration not stated) | 21.1 |
| CN(CC(=O)N1CCCCC1c1nc(C(C)(C)C)cs1)C1CC1 (configuration not stated) | 1.94 |
| c1cnn(CCN2CCOC(Cn3cccn3)C2)c1 (configuration not stated) | -4.95 |
| OC1(CN2CCOC(Cn3cccn3)C2)CCCCC1 (configuration not stated) | 0.595 |
| Cc1ncccc1CNCC1CCCN1c1cccnn1 (configuration not stated) | -3.29 |
| Cc1cc(C(=O)N2CCCC(n3cncn3)C2)c(C)n1CC1CC1 (configuration not stated) | -2.26 |
| Cc1nnc(NC(=O)NCc2ccnc(N(C)C)c2)s1 | 1.13 |
| CC(NC(=O)NCc1cc(Br)cs1)c1ccccn1 (configuration not stated) | -3.66 |
| COc1ccc(C)cc1C(C)NC(=O)Cn1ccc(=O)n(C)c1=O (configuration not stated) | -1.39 |
| Cc1cc(C(=O)N2CCCC(n3cccn3)C2)c(C)n1C1CC1 (configuration not stated) | -2.54 |
| NC(=O)c1csc(C(=O)N2CCCC(n3cccn3)C2)c1 (configuration not stated) | 1.27 |
| CC(C)=CCN1CCOC(Cn2cccn2)C1 (configuration not stated) | 1.11 |

| SMILES | cytotoxicity at 70.5 h [%] |
| --- | --- |
| Cc1cn2nc(N3CCCC3Cn3nc(C)nc3C)sc2n1 (configuration not stated) | -5.44 |
| NC(=O)c1ccc(C(=O)N2CCCC(n3ccnc3)C2)s1 (configuration not stated) | -2.91 |
| c1ncn(CC2CN(CC3CCCCC3)CCO2)n1 (configuration not stated) | 2.16 |
| OCC1CCCN1c1cc(NCc2ccsc2)ncn1 (configuration not stated) | 1.84 |
| Cc1ncsc1CNc1cc(N2CCCC2CO)ncn1 (configuration not stated) | 26.9 |
| CCc1ccc(CNc2cc(N3CCCC3CO)ncn2)s1 (configuration not stated) | 1.8 |
| Cc1n[nH]c(C2CN(CCc3cccs3)CCO2)n1 (configuration not stated) | 14.5 |
| CCCc1n[nH]c(C2CN(CCc3cccs3)CCO2)n1 (configuration not stated) | -3.81 |
| COc1cccc(CN2CCCC2Cn2nc(C)nc2C)c1 (configuration not stated) | 3.03 |
| O=C(CCN1CCc2c(ncn2C2CC2)C1)NC1CCCC1 | -6.41 |
| CC(C)c1nc(C2CCCN(C(=O)c3ccc4c(c3)COC4)C2)no1 (configuration not stated) | 0.421 |
| Cc1cc(F)ccc1CNCc1cccc(C(=O)N2CCCC2)c1 | -1.53 |
| CCn1ccnc1CN1CCCN(C(=O)Cc2ccc(C)s2)CC1 | 26.4 |
| CNS(=O)(=O)c1ccc(CNC(=O)c2c(C)oc(C)c2C)cc1 | -12.9 |
| O=C(c1cccc(CNS(=O)(=O)c2ccc(F)cc2)c1)N1CCCC1 | -9.64 |
| CC(C)CCC(=O)NCCc1ccn(-c2ccccc2)n1 | -5.88 |
| CC(c1nc(C2CC2)no1)N1CCN(Cc2nnc(C3CC3)o2)CC1 (configuration not stated) | -2.67 |
| CCC(CC)C(=O)NCCc1ccn(-c2ccccc2)n1 | -0.813 |
| Cc1cnn(CC2CCCCN2C(=O)c2cnc3n[nH]c(C)c3c2)c1 (configuration not stated) | -4.13 |
| CSCc1ccc(CNC2CCCN(c3ccc(C)nn3)C2)o1 (configuration not stated) | -9.42 |
| CCn1ccnc1CN1CCCN(C(=O)Cc2ccc(F)cc2)CC1 | 17.5 |
| O=C(c1cn(-c2ccccc2)nn1)N1CCCC(n2cccn2)C1 (configuration not stated) | -3.98 |
| Cc1cnn(CC2CCCN2C(=O)c2cc(C)nc3[nH]nc(C)c23)c1 (configuration not stated) | -3.88 |
| Cc1ccc(CC(=O)N2CCCN(Cc3nccn3C)CC2)cn1 | -1.57 |
| CC(C)c1nc(C2CCCN(C(=O)c3ccc4c(c3)OCO4)C2)no1 (configuration not stated) | 18.1 |
| CCn1cc(C(=O)N2CCCC(c3noc(C)n3)C2)cn1 (configuration not stated) | -2.74 |

| SMILES | cytotoxicity at 70.5 h [%] |
| --- | --- |
| CC(C)c1nc(C2CCCN(C(=O)c3ccc4nncn4c3)C2)no1 (configuration not stated) | -5.81 |
| Cc1nc(C2CCCN(C(=O)c3ccc(S(C)(=O)=O)cc3)C2)no1 (configuration not stated) | -6.59 |
| Cc1nc(C2CCCN(C(=O)c3ccoc3)C2)no1 (configuration not stated) | -7 |
| COc1ccc(CN2CCCCC2Cn2nc(C)nc2C)cc1F (configuration not stated) | -1.41 |
| O=C(COCc1ccccc1Cl)N1CCCC(n2ccnc2)C1 (configuration not stated) | 17.5 |
| CCCc1nc(CN2CCN(C(C)c3nc(C4CC4)no3)CC2)no1 (configuration not stated) | -5.86 |
| Cc1ccc(F)cc1S(=O)(=O)NCc1cccc(C(=O)N2CCCC2)c1 | -2.82 |
| O=C(CCc1ccncc1)NCc1csc(Br)c1 | -7.74 |
| Cc1ccccc1CN1CCN(C(C)c2nc(C3CC3)no2)CC1 (configuration not stated) | 17 |
| Cc1cnn(CC2CN(Cc3csc(C(C)C)n3)CCO2)c1 (configuration not stated) | 20.8 |
| CCc1n[nH]c(C2CN(C(=O)c3cnn(CC)c3)CCO2)n1 (configuration not stated) | 19.6 |
| COCc1nc(C(=O)N2CCCC(n3cccn3)C2)cs1 (configuration not stated) | -13.4 |
| O=C(c1cc2cc(F)ccc2[nH]1)N1CCC(Nc2cccnn2)CC1 | 24.4 |
| Cc1ccn(-c2cccc(C(=O)N3CCCC(n4ccnc4C)C3)c2)n1 (configuration not stated) | -11.3 |
| CCc1nccn1C1CCCN(C(=O)c2csc(COC)n2)C1 (configuration not stated) | -17.8 |
| CCC(O)CN1CCN(C(=O)Cc2cc(Cl)ccc2OC)CC1 (configuration not stated) | -8.81 |
| O=C(Cc1n[nH]c2ccccc12)N1CCC(Nc2cccnn2)CC1 | -2.23 |
| CC(Cn1cccn1)NC(=O)N1CCN(Cc2cccnc2)CC1 (configuration not stated) | -7.03 |
| COc1ccc(Cl)cc1CC(=O)N1CCN(CCO)CC1 | 12.5 |
| Cc1nc(C)c(C(=O)OCCNc2ncccc2C#N)s1 | -11.1 |
| O=C(N1CCC(Nc2cccnn2)CC1)C1(c2ccc(F)cc2)CC1 | -6.39 |
| Cc1nc(C)n(CC2CCCN2Cc2ccn(-c3ccccc3)n2)n1 (configuration not stated) | 3.67 |
| CC(=O)N1CCCN(CC(C)(O)c2cccc(C(F)(F)F)c2)CC1 (configuration not stated) | -3.98 |
| c1ccc(-n2ccc(CN3CCCC3Cn3cccn3)n2)cc1 (configuration not stated) | -13.6 |
| Cc1noc(C(C)C)c1C(=O)NCCCOC(C)C | -4.85 |
| CC(c1cccc(S(N)(=O)=O)c1)N(C)CCOc1ccccc1 (configuration not stated) | -16.8 |

| SMILES | cytotoxicity at 70.5 h [%] |
| --- | --- |
| CCc1nc(C2CCCN2C(=O)CCn2cncn2)no1 (configuration not stated) | -21.3 |
| COc1c(C2CCCN2C(=O)c2cncnc2C)c(C)nn1C (configuration not stated) | 39.1 |
| O=S(=O)(CCCN1CCCC1Cn1cncn1)c1ccccc1 (configuration not stated) | 11.6 |
| CN1CCC/C1=N\S(=O)(=O)c1ccc(NC(=O)c2ccc(F)cc2)cc1 | -4.6 |
| CC(C)CCCNC(=O)Nc1ccc(F)c(C(N)=O)c1 | 2.14 |
| CCn1cc(NC(=O)NCc2ccc3c(c2)OCCO3)cn1 | -13 |
| COc1ccc(F)cc1C(C)NC(=O)Cn1ccc(=O)n(C)c1=O (configuration not stated) | -6.42 |
| COc1cc(CNCc2ccc(NC(=O)NC(C)C)cc2)cc(OC)c1 | 2.03 |
| CC(C)NC(=O)Nc1ccc(CNCc2cccc(OC(F)F)c2)cc1 | 29.1 |
| COC(=O)c1cccn1C1CCN(CC(=O)NC2CCCCC2)CC1 | -8.68 |
| CN(C)c1ccc(C(=O)N2CCN(Cc3cscn3)CC2)cc1F | -8.39 |
| Cc1cc(C)n(CC2CN(Cc3nc(-c4ccco4)no3)CCO2)n1 (configuration not stated) | 2.57 |
| Cc1ccc(C#N)cc1NC(=O)NC1CCCN(c2ncccn2)C1 (configuration not stated) | -0.699 |
| c1ccc(C(OCCNC2CCc3ncnn3C2)c2ccccc2)cc1 (configuration not stated) | -5.27 |
| Cc1cnn(CC2CCCN2C(=O)c2cc3c(F)cccc3[nH]2)c1 (configuration not stated) | 6.2 |
| Cc1ccc(-c2cc(CN3CCOC(Cn4cncn4)C3)on2)cc1 (configuration not stated) | 47.8 |
| Cc1cnn(CC2CCCN2CC(=O)Nc2nc(C)cs2)c1 (configuration not stated) | 1.41 |
| CCN(Cc1cccc2c1OCO2)C(=O)NC1CC1 | 8.97 |
| Cc1cnn(CC2CCN(CC(O)COc3ccc(F)cc3)CC2)c1 (configuration not stated) | 26.5 |
| COc1ccccc1OCC(=O)NS(=O)(=O)c1ccc(Br)s1 | -4.66 |
| CCCC(C)C(=O)N1CCC(n2cccc2C(=O)OC)CC1 (configuration not stated) | -2.08 |
| COCCc1noc(CN2CCOC(Cn3nc(C)cc3C)C2)n1 (configuration not stated) | 2.63 |
| CCc1cnc(CN2CCC(N(C)Cc3noc(C4CC4)n3)C2)o1 (configuration not stated) | 23.8 |
| COc1c(CNCc2ccc(C(=O)N3CCCC3)cc2)c(C)nn1C | 10.8 |

Reference: ChEMBL document CHEMBL3507680, “University of Dundee, Gates Library screen for HepG2 cell viability”
